Results from article PMC7764069 (Microorganisms, 2020).
Read-outs that look alike come from different tables or passages of the source.

Tests used:
A(H1N1)pdm09 virus = tested on: A(H1N1)pdm09 virus; parameters: method as in PMID 31837268; details: nude mice, BXM 10 mg/kg once daily for 28 days; untreated controls 5 days; cited from earlier work
[1] = BXA in humans; mimicked by 15 mg/kg BXM BID for 5 days orally in immunocompetent mice; cited from earlier work
[2] = tested on: splenic T, B and NK cells; details: for frequency of proliferating B cells: day 4 post infection; for frequency of proliferating B cells / percentage of proliferating T cells: CP 100 mg/kg i.p.

SMILES: COC(=O)OCOc1c2n(ccc1=O)N([C@@H]1c3ccccc3SCc3c1ccc(F)c3F)[C@@H]1COCCN1C2=O [BXM, baloxavir marboxil]
- median survival time (A(H1N1)pdm09 virus): 49 days

SMILES: O=C1c2c(O)c(=O)ccn2N([C@@H]2c3ccccc3SCc3c2ccc(F)c3F)[C@@H]2COCCN12 [BXA, baloxavir acid]
- target plasma concentration [1]: 6.85 ng/mL

SMILES: O=P1(N(CCCl)CCCl)NCCCO1 (stereo not shown) [CP, cyclophosphamide]
- NK proliferative capacity ([2]; following CP administration, day 4 p.i.): no significant decline
- frequency of proliferating B cells ([2]; infected animals, without CP 94.7%): 40.7%
- percentage of proliferating T cells ([2]; infected mice, day 4 p.i., without CP […]): 72.6%
- percentage of proliferating T cells ([2]; uninfected mice, day 4 p.i., without CP 92.2%): 63.1%
- frequency of proliferating B cells ([2]; uninfected mice, without CP 82.5%): 36.2%
